Entries after “also recorded” stand apart in the source; their conditions may differ.
Experiments:
NFkB signaling [1] = assay: NFkB reporter assay in Raji cells; format: cell-based; details: 100 nM and 500 nM for 48 hours
Source text: 10^5 Raji cells were co-transfected overnight with a Cignal firefly luciferase-expressing NFkB reporter plasmid (NFkBr; SA Biosciences) together with a constitutively expressed Renilla luciferase reporter plasmid containing a CMV promoter. A promoterless vector (Neg-Luc) was co-transfected with the Renilla reporter for control. […] Data are presented as a ratio of firefly-to-Renilla luciferase luminescence.

NFkB signaling [2] = assay: In vivo NFkB signaling of Raji cells implanted in murine brain (BLI); set-up: species or system athymic mice; details: 2.5 mg/kg and 5 mg/kg intraperitoneally the day after implantation
Procedure: An in-vivo experiment was also performed to assess impact of Agelastatin A on NFkB signaling in Raji cells implanted inside the murine brain. In serum free medium, Raji cells were transfected with NFkB reporter system. 25,000 cells were intracerebrally injected into athymic mice. […] Bioluminescence imaging (BLI) of NFkB activity of intracerebral Raji lymphoma cells were measured on day 4 post intracerebral implantation.

Raji lymphoma cells [3] = assay: Matrigel invasion assay; format: cell-based; details: 1 hour pre-treatment with log dilutions
Procedure: Invasion assays were performed in triplicate using BD Biocoat Matrigel Invasion Chamber (BD Biosciences: Sparks, Md.) according to manufacturer's instructions (8-μm pore-size). Five percent serum was used as a chemoattractant in the bottom chamber. […] Viability of Raji cells was ascertained by Trypan blue test after the treatment with AA. Statistical analysis was performed using two-tailed Student's T-Test.

[4] = CNS pharmacokinetic study in mice (microdialysis, CE-UV); format: in vivo, C57BL/6J mice; details: 2.5 mg/kg i.p.
Procedure: The total of 90 male wild type C57BL/6J mice were used in this study. C57BL/6J mice were approximately 2 months of age and weighed 20˜25 g. All mice were housed in a temperature-controlled room ([…]) with a 12:12 light dark cycle (lights on at 0600). Purina 5001 Rodent Chow and tap water were available ad libitum at all times. Mouse use was approved by Mayo Foundation Institutional Animal Use and Care Committee (IACUC) and was consistent with NIH Guide for the Care and Use of Laboratory Animals. Agelastatin A was synthesized by Professor Takehiko Yoshimitsu at Graduate School of Pharmaceutical Sciences, Osaka University, Osaka, Japan. Professor Yoshimitsu has described details on the synthesis of this compound. Purity as determined by NMR spectra is >99%.
A total of five mice were used in microdialysis experiments. On the day of surgery, mice were anesthetized with gasiform isoflurane (1% isoflurane in a mixture of 20% oxygen and 80% nitrogen gas) and immobilized in a stereotaxic frame (KOPF Instruments, Tujunga, Calif.). […]
Briefly, the capillaries were preconditioned with 1 M sodium hydroxide for 2 min, water for 2 min and running buffer [100 mmol/1 solution of ammonium acetate (adjusted to pH 3.1 with acetic acid)-acetonitrile (50:50, v/v)] for 3 min. […] CNS penetration was determined as the ratio of CSF and blood area under the curve (AUC).

osteopontin mRNA = assay: Osteopontin mRNA real-time PCR; format: cell-based; details: at 12 h; normalized to GAPDH
Procedure: B lymphoma cells were grown at 1×10^6 cells in complete media. Cells were harvested by centrifugation, and total RNA was extracted by Trizol and PureLink kit as described by the manufacturer (Invitrogen: Carlsbad, Calif.). Residual genomic DNA contamination was removed by DNA-Free kit (Applied Biosystems: Carlsbad, Calif.). Total RNA was converted to cDNA using the High Capacity Reverse Transciption kit (Applied Biosystems: Carlsbad, Calif.) and diluted to 4 ng/μl RNA with nuclease-free water.
Ct values were determined by instrument software and relative osteopontin mRNA values were normalized to GAPDH. Significant difference of Ct values was determined using a two-tailed Student's T-test.

Raji lymphoma cells [5] = assay: Ex vivo murine brain slice invasion assay; format: cell-based; details: cells pretreated with 100 nM for four days; day 5 post-incubation; vs DMSO
Procedure: The impact of Agelastatin A on the brain invasiveness of Raji B lymphoma cells was assessed ex vivo using a modified murine brain slice invasion assay. Briefly, these cells were first pre-transfected with luciferase (SP-DiI; Molecular Probes) just prior to invasion assays. Slice cultures of whole brains were produced from C57 mice. Two-month-old male C57BL/6J mice were sacrificed by CO2 inhalation. Mice brains were removed, placed into sterile ice-cold PBS, and then coronally sectioned with a 1 mm coronal brain matrix into 1 mm slices at +2.00 to −1.00 bregma. Brain slices were placed aseptically onto transwell (8 μm pore size) membranes in six-well dishes. Culture media (DMEM, 10% FCS, […], 100 U/ml penicillin, 100 μg/ml streptomycin, and 2.5 μg/ml amphotericin B) was added into each well to a point just below that which would cover the brain slice. […] Cells were allowed to attach to the brain surface for one hour before the media was adjusted to just cover the surface of the slice. After 5 days incubation, the extent of lymphoma cell invasion into the brain slice was quantitated by bioluminesence imaging (BLI) in both slice and media. Brain slices were fixed in 4% paraformaldehyde for CD20 staining to identify Raji cells, which had invaded the brain slices. […]

CN1C(=O)N[C@H]2[C@@H]3NC(=O)c4ccc(Br)n4[C@@H]3C[C@]21O [AA, agelastatin A, reference compound]
NFkB signaling in Raji cells (reporter assay) (NFkB signaling [1]): significantly downregulated NFkB signaling; also recorded: attenuates the NFkB signaling
NFkB signaling activity of Raji cells implanted in the murine brain (BLI) (NFkB signaling [2]): can impact the molecular signaling activity (NFkB signaling pathway) in a brain tumor; also recorded: decreased the NFkB signaling activity
Raji lymphoma cell invasion (Matrigel) (Raji lymphoma cells [3]): significantly decreased invasiveness; also recorded: blocks Raji lymphoma cell invasion
penetration into brain and eye tissue compartments [4]: shown to penetrate into the brain and eye tissue compartments; also recorded: can penetrate the brain and eye tissue compartments
expression of OPN messenger RNA (PCR) (osteopontin mRNA): transcriptionally downregulating osteopontin; also recorded: decreases the expression of OPN messenger RNA
brain invasiveness of Raji lymphoma cells (ex vivo brain slice) (Raji lymphoma cells [5]): significantly decreased and disabled the brain invasiveness; also recorded: decreases the brain invasiveness of Raji lymphoma cells; also recorded: No AA-treated lymphoma cells were found in the brain slice
